As a reminder, the IC50 is the concentration needed to halve the response being measured.

For 13 molecules, IC50 results are on record in BindingDB's records for patent US11286268 (eFFECTOR Therapeutics, Inc., 2022).

This test deals with Eukaryotic translation initiation factor 4E (Homo sapiens, UniProt P06730). Put plainly: Fluorescence Polarization Assay. The procedure:
eIF4E protein was pre-incubated with EDA-m7GDP-ATTO-550 in FPB at 2xconcentrations for 5 minutes prior to the addition of compounds. Compounds (100x) were prepared using 3-fold serial dilutions in 100% DMSO, and subsequently diluted 1:50 in FPB to produce 2x stocks. 50 ul of 2x eIF4E/EDA-m7GDP-ATTO-550 were transferred to the wells of a 96-well half-area black flat bottom polystyrene plate. 50 ul of 2x test compound were added, and binding reactions were allowed to equilibrate for 30 minutes at room temperature while protected from light. The fluorescent polarization signal was detected using a Victor 2 multi-label counter (Perkin Elmer) and the concentration necessary to achieve inhibition of eIF4E/EDA-m7GDP-ATTO-550 binding by 50% (IC50) was calculated using data from an 8-point compound dilution series.

Sequence of Eukaryotic translation initiation factor 4E (P06730 whole entry): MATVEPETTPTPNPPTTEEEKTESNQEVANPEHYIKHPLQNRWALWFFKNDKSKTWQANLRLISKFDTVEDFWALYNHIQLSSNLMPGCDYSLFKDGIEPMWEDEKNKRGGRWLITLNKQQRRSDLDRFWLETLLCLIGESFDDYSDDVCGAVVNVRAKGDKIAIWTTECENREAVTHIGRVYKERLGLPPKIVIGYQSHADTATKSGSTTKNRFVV

`Cc1nc2cnc(N(C)C3CCN(CC(C)(F)F)CC3)c(C#N)c2c(=O)n1CC#Cc1ccc(Cl)cc1-c1ccnc2c(C(=O)NS(=O)(=O)C(F)(F)F)csc12` [US11286268, Compound 1603]: the half-maximal inhibitory concentration (IC50) stood at 2.12 nM.

`Cc1nc2cnc(N3CC4(C3)CN(C3CCC3)C4)c(C#N)c2c(=O)n1CCOc1ccc(Cl)cc1-c1ccnc2c(C(=O)O)csc12` [US11286268, Compound 1437] gave an IC50 of 37.3 nM.

With `Cc1nc2cnc(C(=O)C3CCN(CC(F)F)CC3)c(C#N)c2c(=O)n1CCOc1ccc(Cl)cc1-c1ccnc2c(C(=O)O)csc12` [US11286268, Compound 1440], the half-maximal inhibitory concentration (IC50) was 69 nM.

For `CCN(c1ncc2nc(C)n(CC#Cc3ccc(Cl)cc3-c3ccnc4c(C(=O)NS(=O)(=O)CF)csc34)c(=O)c2c1C#N)C1CCN(C2COC2)CC1` [US11286268, Compound 1743], half-maximal inhibition (IC50) was put at 6.87 nM.

For `Cc1nc2cnc(N3CC4(C3)CN(C3(C)CC(F)(F)C3)C4)c(C#N)c2c(=O)n1CCOc1ccc(Cl)cc1-c1ccnc2c(C(=O)O)csc12` [US11286268, Compound 1435], half-maximal inhibition (IC50) was put at 26.4 nM.

`CCN(c1ncc2nc(C)n(CC#Cc3ccc(Cl)cc3-c3ccnc4c(C(=O)NS(=O)(=O)C5COC5)csc34)c(=O)c2c1C#N)C1CCN(CC(F)(F)C(F)F)CC1` [US11286268, Compound 1608]: half-maximal inhibition (IC50) required 6.59 nM.

`CCN(c1ncc2nc(C)n(CC#Cc3ccc(Cl)cc3-c3ccnc4c(C(=O)NS(=O)(=O)c5ccccn5)csc34)c(=O)c2c1C#N)C1CCN(CC(F)(F)C(F)F)CC1` [US11286268, Compound 1609] came in with an IC50 of 4.88 nM.

`Cc1nc2cnc(N(C)CC3CCN(CC(F)F)CC3)c(C#N)c2c(=O)n1CC#Cc1ccc(Cl)cc1-c1ccnc2c(C(=O)O)csc12` [US11286268, Compound 1541] showed a 50% inhibitory concentration (IC50) of 10.6 nM.

The molecule `Cc1nc2cc(C(F)(F)F)cc(C#N)c2c(=O)n1CCOc1ccc(Cl)cc1-c1cc(C(C)C)nc2c(C(=O)O)csc12` [US11286268, Compound 1902] had an IC50 of 84.2 nM.

`Cc1nc2cnc(N(C)C3CCN(CC(F)F)CC3)c(C#N)c2c(=O)n1CCOc1ccc(Cl)cc1-c1ccnc2c(C(=O)O)csc12` [US11286268, Compound 1318] returned an IC50 of 34.4 nM.

`N#Cc1ccc(OCCn2cnc3cnc(C#N)cc3c2=O)c(-c2cccc(C(=O)O)c2)c1` [US11286268, Compound 2026] showed an IC50 of 656 nM.

Molecule `Cc1nc2cnc(N3CCN(C4CC4)C(C(F)F)C3)c(C#N)c2c(=O)n1CCOc1ccc(Cl)cc1-c1ccnc2c(C(=O)O)csc12` (stereo not drawn) [US11286268, Compound 1439] displayed an IC50 of 12.8 nM.

`Cc1nc2cnc(NC3CC[N+](C)(CC(F)F)CC3)c(C#N)c2c(=O)n1CC#Cc1ccc(Cl)cc1-c1ccnc2c(C(=O)O)csc12` (stereo not drawn) [US11286268, Compound 1663] showed an IC50 of 14.1 nM. The IC50 values of the last two molecules are within 1.5-fold of each other.
